The source of these data is ChEMBL document CHEMBL4371089, “Novel, potent, selective, and brain penetrant phosphodiesterase 10A inhibitors” (Bioorg Med Chem Lett, 2019).

The structures appear in SMILES notation.

In one data set the test system is P-gp. Kind of data set: in vitro. To be noted: dog, MDCK-MDR1.
Data set [1] is described as follows: in vivo. To be noted: rat, brain/plasma, ip, 2 mg/kg.
Data set [2] can be described thus: in vivo. To be noted: rat, po, 2 mg/kg.
Data set [3] is described as follows: in vivo. To be noted: rat, iv, 2 mg/kg.
A short description of data set [4]: in vivo. Conditions: rat, plasma, ip, 2 mg/kg.
Data set [5] is described as follows: in vivo. Conditions: rat, brain/plasma, ip, 2 mg/kg. This is another data set of the same source.
Data set [6] in a line: in vivo. To be noted: rat, brain, ip, 2 mg/kg.
The conditions of data set [7]: rat, in vivo, ip, 2 mg/kg, 1 h.
The conditions of data set [8]: rat, in vivo, ip, 2 mg/kg, 1 h. The source holds these as a separate data set.

As usually defined, the Papp is the rate of passage across a membrane or cell layer, normalised by area and donor concentration. A low value points to slow passage. In the data set on P-gp, `Cn1nc(-c2ccccc2Cl)c2c3cc(F)cc(F)c3nnc21` yielded a Papp of 36 ×10⁻⁶ cm/s.

Take `COc1cc(OC)c2nnc3c(c(C4CC4)nn3C)c2c1`: the Papp with P-gp stood at 62 ×10⁻⁶ cm/s.

`CCCc1nc(C)c2c(C)nc3scnc3n12` showed a Papp in the data set with P-gp of 68 ×10⁻⁶ cm/s.

In general, Kp refers to the ratio of the level in a tissue or fluid to that in plasma or blood. A word on the bioavailability: it is dose-corrected exposure relative to a reference, in per cent. A low value points to poor availability. One may read the Vd as the apparent volume that relates the amount in the body to the concentration in plasma or blood. `CCCc1nc(C)c2c(C)nc3ccc(OC)nc3n12` displayed a Kp at 1 h in the data set “in vivo [1]” of 1.67. The same compound came in with a bioavailability in “in vivo [2]” of 19%. Further, in the data set “in vivo [3]”, the Vd was 2.4 L/kg. The concentration at 1 h was determined as 72 ng/mL in “in vivo [4]” and 118 ng/mL in the data set “in vivo [6]”. For the same compound, in the data set “in vivo [5]”, the Kp uu at 1 h worked out at 3.81. In addition, in the data set with P-gp, the Papp came to 33 ×10⁻⁶ cm/s. Further, the “Druguptake(free)/dose” value in data set [7] was 0.4 ng/mL. Also, the “Cp(f)/dose” value in data set [8] is 0.1 ng/mL.
